The Kd is the free concentration of one partner at which half of the binding sites on the other are occupied at equilibrium, for simple one-to-one binding.

Our source for the Kd values is article PMC8112388 (Inorganic chemistry, 2021).

This assay concerns the target human serum albumin (HSA) (Homo sapiens, UniProt P02768). The assay is described as follows: proton relaxation enhancement titration. In kind it is binding. As to conditions: read-out: KD(HSA).

Chain of human serum albumin (HSA) (P02768 25-609): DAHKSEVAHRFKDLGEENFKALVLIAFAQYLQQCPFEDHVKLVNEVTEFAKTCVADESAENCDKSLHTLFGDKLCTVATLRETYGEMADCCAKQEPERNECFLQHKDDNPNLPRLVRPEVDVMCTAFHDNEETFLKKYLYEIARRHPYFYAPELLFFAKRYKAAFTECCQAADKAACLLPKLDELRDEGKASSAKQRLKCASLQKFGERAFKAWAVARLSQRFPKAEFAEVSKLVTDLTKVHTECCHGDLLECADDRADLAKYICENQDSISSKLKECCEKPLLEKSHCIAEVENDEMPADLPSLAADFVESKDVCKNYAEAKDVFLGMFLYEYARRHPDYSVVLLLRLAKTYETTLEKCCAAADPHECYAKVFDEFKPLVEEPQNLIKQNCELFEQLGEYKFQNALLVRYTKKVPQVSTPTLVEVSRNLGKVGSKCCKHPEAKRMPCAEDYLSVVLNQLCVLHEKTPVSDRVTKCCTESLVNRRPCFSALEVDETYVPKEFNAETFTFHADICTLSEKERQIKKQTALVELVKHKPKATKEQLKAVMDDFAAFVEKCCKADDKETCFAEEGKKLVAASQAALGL

As to MnPyC3A–BPEN [Mn(3)], the Kd was found to be 28 ± 1 µM.
